Among the data in ChEMBL document CHEMBL1146918, “Synthesis and anti-angiogenesis activity of coumarin derivatives” (Bioorg Med Chem Lett, 2006) are IC50 values, retold here.

One assay deals with U-87 MG. Kind of assay: Antiproliferative activity against human U87 MG cell line. In kind it is functional, cell-based, U-87MG ATCC.
In another assay the test system is B16. In words: Antiproliferative activity against mouse B16 cell line. In kind it is functional, cell-based.
The next assay has as its system HeLa. In words: Antiproliferative activity against human HeLa cell line. It counts as functional, cell-based.
A further assay concerns DLD-1. Kind of assay: Antiproliferative activity against human DLD1 cell line. In kind it is functional, cell-based.
The subject of the next assay is SiHa. In words: Antiproliferative activity against human SiHa cell line. It counts as functional, cell-based.
The next assay has as its system NIH3T3. In words: Antiproliferative activity against mouse NIH3T3 cell line. In kind it is functional, cell-based.
In another assay the test system is HUVEC. In words: Antiproliferative activity against HUVEC cell line. It counts as functional, cell-based. The settings on record: Homo sapiens.

pIC50: −log10 of the molar value. Where only a bound is given, the exact number is not on record here.

Take `CCN(CC)c1ccc2cc(C(C)=O)c(=O)oc2c1`: the pIC50 with U-87 MG, in the assay with B16, with HeLa, in the assay with DLD-1 (read-out: IC50), with SiHa and in the assay on NIH3T3 was less than 4.15 in each case. In addition, the negative-log IC50 (pIC50) (commonly −log10 of the IC50, conventionally taken in molar units) in the assay on HUVEC is less than 4.15.
With `O=c1oc2c3c4c(cc2cc1[N+](=O)[O-])CCCN4CCC3`, the pIC50 with U-87 MG, in the assay with B16, with HeLa, in the assay on DLD-1 (read-out: IC50), in the assay with SiHa and with NIH3T3 was less than 4.15 in each case. This compound also had a pIC50 with HUVEC of less than 4.15.
On to `CC(=O)O[C@H]1C(=O)[C@@]2(C)[C@H]([C@H](OC(=O)c3ccccc3)[C@]3(O)C[C@H](OC(=O)[C@H](O)[C@@H](NC(=O)c4ccccc4)c4ccccc4)C(C)=C1C3(C)C)[C@]1(OC(C)=O)CO[C@@H]1C[C@@H]2O` [PACLITAXEL], for which the pIC50 with U-87 MG was 7.10; in the assay with B16 it was 7.10; in the assay on HeLa, 6.33; in the assay with DLD-1, 7.05; with SiHa, 5.46; with NIH3T3 it was 5.89. Moreover, the pIC50 with HUVEC is 7.22.
As to `CCN(CC)c1ccc2c(C#N)c(-c3nc4ccccc4s3)c(=O)oc2c1`, the pIC50 in the assay with U-87 MG, with B16, in the assay on HeLa, with DLD-1 (read-out: IC50), in the assay with SiHa and in the assay with NIH3T3 was less than 4.15 throughout. The compound further gave a pIC50 in the assay with HUVEC of 5.32.
For `CCN(CC)c1ccc2cc(-c3nc4ccccc4s3)c(=O)oc2c1`, the negative logarithm of the IC50 (pIC50) in the assay with U-87 MG, in the assay with B16, in the assay with HeLa, in the assay on DLD-1 (read-out: IC50), in the assay with SiHa and in the assay on NIH3T3 was less than 4.15 throughout. Further, the pIC50 with HUVEC was less than 4.15.
Turning to `O=c1oc2c3c4c(cc2cc1-c1nc2ccccc2[nH]1)CCCN4CCC3`, the pIC50 in the assay with U-87 MG is 4.48; with B16 it was 5.05; with HeLa, 4.94; in the assay on DLD-1 (read-out: IC50), 4.45; in the assay with SiHa it was 4.84; in the assay on NIH3T3, 4.38. Moreover, in the assay on HUVEC, the pIC50 is 5.48.
On to `CCN(CC)c1ccc2cc(-c3nc4ccccc4[nH]3)c(=O)oc2c1`, for which the pIC50 in the assay on U-87 MG was 4.82; with B16 it was 4.90; in the assay with HeLa, less than 4.15; in the assay on DLD-1 (read-out: IC50), less than 4.15; in the assay with SiHa it was 4.21; in the assay on NIH3T3 it was 5.03. In the assay with HUVEC, this compound showed a pIC50 of 5.02.
In the case of `O=Cc1cc2c3c(c1O)CCCN3CCC2`, the pIC50 in the assay with U-87 MG, in the assay with B16, in the assay on HeLa, in the assay with DLD-1 (read-out: IC50), with SiHa and in the assay on NIH3T3 was less than 4.15 throughout. For the same compound, the negative logarithm of the IC50 (pIC50) with HUVEC was 4.45.
